In patent US20090035364A1, “PARA-SUBSTITUTED 2-ALKOXYPHENOL COMPOUNDS” (priority 2006, published 2009):

Experiments:
[1] = Cooling intensity: panelists taste aqueous solutions, compared with menthol at 2 ppm; assay type: in vivo, human; settings: tasted by a small group of panelists
[2] = Application in toothpaste: panelist's teeth brushed with toothgel containing the compound; assay type: in vivo, human; settings: 0.10 g of 10% solution in ethanol in opaque toothgel with peppermint oil and saccharin; after brushing and rinsing
Procedure: The chemicals are mixed in the toothgel, a piece of toothgel is put on a toothbrush and a panelist's teeth are brushed. The mouth is rinsed with water and the water is spat out. […] The cooling perception lasts for 45 minutes.

melting point [°C]	Structure (SMILES)	Concentration having a cooling intensity similar to or slightly higher than that of a solution of menthol at 2 ppm [1] [ppm]	other results
	COc1cc(CNC(c2ccccc2)c2ccccc2)ccc1O [Example 1, 4-((benzhydrylamino)methyl)-2-methoxyphenol]	0.5	
	COc1cc(COC(c2ccccc2)c2ccccc2)ccc1O [Example 4, 4-((benzhydryloxy)methyl)-2-methoxyphenol]	1.0	Cooling sensation felt by the panelist [2]: intense cooling sensation; Duration of cooling perception [2]: 45 min
148 to 150	COc1cc(CNC2c3ccccc3-c3ccccc32)ccc1O [Example 5, 4-((9H-fluoren-9-ylamino)methyl)-2-methoxyphenol]		
89 to 91	CCOc1cc(CNC(c2ccccc2)c2ccccc2)ccc1O [Example 6, 4-((benzhydrylamino)methyl)-2-ethoxyphenol]		
	CC1CCC(C(C)C)C(O)C1 (centres unmarked) [I-Menthol, reference compound]	2.0	
	CCNC(=O)C1CC(C)CCC1C(C)C (centres unmarked) [N-ethyl p-menthanecarboxamide (WS-3), N-ethyl p-menthanecarboxamide, reference compound]	1.5	
